One test has as its system HFF. Briefly: Antiviral activity in a cell-based plaque reduction assay, using an HFF cell line and the Davis strain of HCMV. The test is classed as functional. The following applies: Homo sapiens. For orientation: Plaque reduction counts the foci of infection that form in a cell layer.
Test [1] addresses T1, DNA polymerase alpha catalytic subunit (Homo sapiens, UniProt P09884).
T1 sequence (P09884 whole entry): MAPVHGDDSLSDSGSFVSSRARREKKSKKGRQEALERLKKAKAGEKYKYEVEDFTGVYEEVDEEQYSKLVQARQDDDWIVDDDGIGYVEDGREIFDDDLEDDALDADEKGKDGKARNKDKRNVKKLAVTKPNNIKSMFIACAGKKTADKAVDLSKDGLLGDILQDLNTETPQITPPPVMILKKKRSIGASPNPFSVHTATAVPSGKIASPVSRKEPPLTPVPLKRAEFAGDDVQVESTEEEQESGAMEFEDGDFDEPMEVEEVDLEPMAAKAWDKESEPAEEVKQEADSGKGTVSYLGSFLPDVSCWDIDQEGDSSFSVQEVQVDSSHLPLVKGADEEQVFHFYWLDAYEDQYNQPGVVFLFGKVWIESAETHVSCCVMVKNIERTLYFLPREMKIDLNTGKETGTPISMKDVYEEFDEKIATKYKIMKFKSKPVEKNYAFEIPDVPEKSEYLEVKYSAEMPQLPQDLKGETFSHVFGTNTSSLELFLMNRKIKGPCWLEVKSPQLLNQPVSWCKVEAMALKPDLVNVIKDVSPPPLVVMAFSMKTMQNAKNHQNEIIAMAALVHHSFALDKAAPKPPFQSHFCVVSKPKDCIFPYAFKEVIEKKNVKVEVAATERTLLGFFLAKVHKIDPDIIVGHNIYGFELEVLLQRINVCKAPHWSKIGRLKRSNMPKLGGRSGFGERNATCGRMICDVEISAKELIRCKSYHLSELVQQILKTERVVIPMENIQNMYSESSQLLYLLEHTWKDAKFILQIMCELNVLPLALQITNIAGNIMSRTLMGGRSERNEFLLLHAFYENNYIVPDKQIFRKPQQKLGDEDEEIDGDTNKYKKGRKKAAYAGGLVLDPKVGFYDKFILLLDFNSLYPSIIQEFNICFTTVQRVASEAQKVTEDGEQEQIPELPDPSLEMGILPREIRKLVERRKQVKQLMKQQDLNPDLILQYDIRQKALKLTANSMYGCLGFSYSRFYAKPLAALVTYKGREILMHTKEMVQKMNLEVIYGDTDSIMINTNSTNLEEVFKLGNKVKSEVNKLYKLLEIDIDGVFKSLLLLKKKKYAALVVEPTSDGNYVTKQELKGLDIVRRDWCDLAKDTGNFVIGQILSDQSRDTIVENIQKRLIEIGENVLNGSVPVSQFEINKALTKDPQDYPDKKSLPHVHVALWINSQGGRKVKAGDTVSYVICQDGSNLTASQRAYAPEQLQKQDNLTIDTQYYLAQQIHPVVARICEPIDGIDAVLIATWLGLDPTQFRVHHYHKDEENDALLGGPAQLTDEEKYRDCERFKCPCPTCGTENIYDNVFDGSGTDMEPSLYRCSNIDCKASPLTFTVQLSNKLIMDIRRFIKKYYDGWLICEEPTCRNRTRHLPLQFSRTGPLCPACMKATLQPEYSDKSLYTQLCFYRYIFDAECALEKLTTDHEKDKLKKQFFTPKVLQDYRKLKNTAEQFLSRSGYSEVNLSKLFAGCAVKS
Briefly: Compound was evaluated for the inhibitory activity against Human alpha polymerase.

The compound `COc1ccc2cc(O)c(C(=O)NCc3ccc([N+](=O)[O-])cc3)cc2c1` showed an IC50 in the test on HFF of 3.7 µM.
Still for that read-out and setting: the value for `O=C(NCc1ccc([N+](=O)[O-])cc1)c1cc2cccc(O)c2cc1O` was 1.5 µM; that for `O=C(NCc1ccc(Cl)cc1)c1ccc2ccccc2c1O` was greater than 20 µM; that for `O=C(NCc1ccc(Cl)cc1)c1cc2cccc(O)c2cc1O` was 0.6 µM.
Compound `O=C(Nc1cccc([N+](=O)[O-])c1)c1cc2ccccc2cc1O` showed a half-maximal inhibitory concentration (IC50) in test [1] of 32 µM.
Compound `Nc1nc2c(ncn2COC(CO)CO)c(=O)[nH]1` [GANCICLOVIR] had an IC50 in the test on HFF of 0.6 µM.
Still for that read-out and setting: the value for `O=C(NCc1ccc(Cl)cc1)c1cc2cc(O)ccc2cc1O` was 1 µM; that for `COc1ccc2cc(O)c(C(=O)Nc3nc4c(Cl)cccc4s3)cc2c1` was greater than 5 µM; that for `O=C(NCCc1ccc(Cl)cc1)c1cc2ccccc2cc1O` was greater than 20 µM.

As a reminder, the IC50 is the concentration needed to halve the response being measured. A higher IC50 goes with weaker potency.

The values are drawn from ChEMBL document CHEMBL1133310, “Naphthalene carboxamides as inhibitors of human cytomegalovirus DNA polymerase” (Bioorg Med Chem Lett, 2000).
